What was measured:
Type in all cases: binding
VhCBP F437A = test: ITC titration of VhCBP mutant F437A with (GlcNAc)2
Description: (§1) These proteins were used for ITC binding experiments with (GlcNAc)2 as the ligand. […] Degrees of conservation among five members of cluster/subcluster C-IV SBPs (VhCBP, VcCBP, TmCeBP, TmMnBP1, and TmMnBP2) are also represented by coloring dark red (high degree of conservation) to pale red (moderate degree of conservation) to white (low degree of conservation).
(§2) Figure 5 ITC profiles obtained from (GlcNAc)2titration using VhCBP WT and mutants. Thermograms (upper) and binding isotherms with theoretical fits (lower) of the individual titrations are presented. Titration experiments were conducted in 20 mM Tris HCl, pH 8.0, at 25 °C. ITC, isothermal titration calorimetry. VhCBP, CBP from Vibrio campbellii type strain ATCC BAA-1116.
(§3) ITC experiments were conducted by titrating 200 μM (GlcNAc)n (n = 2, 3, or 4) solutions from the injection syringe into 20 μM WT VhCBP in the sample cell. The titrations were performed in 20 mM Tris-HCl buffer, pH 8.0, by a PEAQ-ITC (Malvern Instruments) using the operational software installed in the equipment. Briefly, the temperature in the sample cell was maintained at 25 °C, and the difference in temperature (ΔT) between the reference cell and the sample cell was compensated by heaters fitted to the cells. The compensation energy utilized per second was plotted against experimental time. Peak integrations of the individual troughs were replotted against the molar ratio of the ligand to protein. The binding isotherm thus obtained was used for data-fitting analysis using the ‘One-Set of Sites’ model defined in MicroCal PEAQ-ITC Analysis Software to obtain Kd, ΔG°, ΔH°, and ΔS° terms. […] Titrations of (GlcNAc)2 to the individual VhCBP mutants were performed as described for the WT protein.
(§4) Table S2: ITC experimental conditions for titration of VhCBP and its mutants with (GlcNAc) 2-4 .
(§5) Table S3: Conditions for co-crystallization of VhCBP mutants with (GlcNAc) 2.

VhCBP WT = test: ITC titration of WT VhCBP with (GlcNAc)2–4; settings: for ΔG° / ΔH° / −TΔS° / Kd: 20 mM Tris-HCl pH 8.0, 25 °C; for ΔG° / ΔH° / −TΔS°: mean ± SD; for Kd: n fixed at 1, mean ± SD of three experiments; for fold lower affinity than (GlcNAc)2: from Kd values
Description: We previously reported ITC data for (GlcNAc)2–4 binding to VhCBP in 20 mM potassium phosphate, pH 8.0, at 4 °C ([13]). Here, we re-evaluated the ITC data by conducting binding experiments in Tris HCl, pH 8.0, at 25 °C using (GlcNAc)n (n = 2–4) as the ligands. The binding interactions for individual ligands were determined assuming a 1:1 stoichiometry.
as §2, §3
Table S2: ITC experimental conditions for titration of VhCBP and its mutants with (GlcNAc) 2-4 . […]

VhCBP W513A = test: ITC titration of VhCBP mutant W513A with (GlcNAc)2
Description: as §1, §2, §3, §4, §5

VhCBP W363A = test: ITC titration of VhCBP mutant W363A with (GlcNAc)2
Description: as §1, §2, §3, §4, §5

VhCBP W363A/W513A = test: ITC titration of VhCBP double mutant W363A/W513A with (GlcNAc)2; settings: 20 mM Tris HCl pH 8.0, 25 °C
Description: To evaluate the contributions of the amino acid residues in (GlcNAc)2 binding, we carried out site-directed mutagenesis to substitute the designated residues and successfully produced nine single mutants, E10A, N204A, S221A, W363A, D365A, N409A, F411A, F437A, and W513A, and one double mutant, W363A/W513A. All proteins were purified to homogeneity by Ni-NTA affinity chromatography, followed by gel filtration, and their purities were checked by SDS-PAGE analysis (Fig. S2). These proteins were used for ITC binding experiments with (GlcNAc)2 as the ligand. […] The effects on ΔG° in the other mutants (E10A, N204A, S221A, N409A, and F411A) were moderate, although one mutation had been introduced into an amino acid with a high degree of conservation (Asn^204). Changes in ΔG° (ΔΔG°) resulting from all the mutations were mapped on the structure of VhCBP in complex with (GlcNAc)2 as shown in Figure 6B. Degrees of conservation among five members of cluster/subcluster C-IV SBPs (VhCBP, VcCBP, TmCeBP, TmMnBP1, and TmMnBP2) are also represented by coloring dark red (high degree of conservation) to pale red (moderate degree of conservation) to white (low degree of conservation).
Figure 5 ITC profiles obtained from (GlcNAc)2titration using VhCBP WT and mutants. Thermograms (upper) and binding isotherms with theoretical fits (lower) of the individual titrations are presented. […]

VhCBP S221A = test: ITC titration of VhCBP mutant S221A with (GlcNAc)2
Description: as §1, §2, §3, §4, §5

VhCBP F411A = test: ITC titration of VhCBP mutant F411A with (GlcNAc)2
Description: as §1, §2, §3, §4, §5

VhCBP N409A = test: ITC titration of VhCBP mutant N409A with (GlcNAc)2
Description: as §1, §2, §3, §4, §5

VhCBP N204A = test: ITC titration of VhCBP mutant N204A with (GlcNAc)2
Description: as §1, §2, §3, §4, §5

VhCBP D365A = test: ITC titration of VhCBP mutant D365A with (GlcNAc)2
Description: as §1, §2, §3, §4, §5

VhCBP E10A = test: ITC titration of VhCBP mutant E10A with (GlcNAc)2
Description: as §1, §2, §3, §4, §5

## CC(=O)N[C@H]1[C@H](O[C@H]2[C@H](O)[C@@H](NC(C)=O)C(O)O[C@@H]2CO)O[C@H](CO)[C@@H](O)[C@@H]1O (stereo partly drawn) [(GlcNAc)2]
VhCBP F437A; F437A versus WT
  ΔΔG°: +4.1 ± 0.3 kcal.mol^−1
VhCBP F437A; ITC, F437A, 20 mM Tris-HCl pH 8.0, 25 °C, mean ± SD
  Kd: 29.7 ± 0.5 µM
VhCBP F437A; ITC, F437A, pH 8.0, 25 °C
  ΔG°: -6.2 ± 0.0 kcal/mol
  ΔH°: -11.0 ± 0.4 kcal/mol
VhCBP WT
  ΔG°: -10.3 ± 0.3 kcal/mol
  ΔH°: -3.9 ± 0.1 kcal/mol
  −TΔS°: -6.4 ± 0.2 kcal/mol
  Kd: 0.03 ± 0.01 µM
VhCBP W513A; ITC, W513A ('half-open'/semiopen state), 20 mM Tris-HCl pH 8.0, 25 °C, mean ± SD
  Kd: 36.8 ± 7.4 µM
VhCBP W513A; ITC, W513A, pH 8.0, 25 °C
  ΔG°: -6.1 ± 0.1 kcal/mol
  ΔH°: -5.8 ± 0.0 kcal/mol
  −TΔS°: -0.3 ± 0.1 kcal/mol
VhCBP W513A; W513A (semiopen) versus WT (closed), from Kd
  lower affinity of semiopen state than the closed state: 1200
VhCBP W513A; W513A versus WT
  ΔΔG°: +4.2 ± 0.3 kcal.mol^−1
VhCBP W363A; ITC, W363A, 20 mM Tris-HCl pH 8.0, 25 °C, mean ± SD
  Kd: 80.2 ± 19.9 µM
VhCBP W363A; ITC, W363A, pH 8.0, 25 °C
  ΔG°: -5.6 ± 0.1 kcal/mol
  ΔH°: -1.9 ± 1.8 kcal/mol
  −TΔS°: -3.7 ± 2.0 kcal/mol
VhCBP W363A; W363A versus WT
  ΔΔG°: +4.7 ± 0.4 kcal.mol^−1
VhCBP W363A/W513A
  binding detected by ITC (ND represents no detectable binding): did not exhibit any clear heat release
VhCBP S221A; ITC, S221A, 20 mM Tris-HCl pH 8.0, 25 °C, mean ± SD
  Kd: 0.07 ± 0.06 µM
VhCBP S221A; ITC, S221A, pH 8.0, 25 °C
  ΔG°: -10.2 ± 1.0 kcal/mol
  ΔH°: -5.3 ± 0.7 kcal/mol
  −TΔS°: -4.9 ± 1.4 kcal/mol
VhCBP S221A; S221A versus WT
  ΔΔG°: +0.1 ± 1.0 kcal.mol^−1
VhCBP F411A; F411A versus WT
  ΔΔG°: +1.6 ± 0.3 kcal.mol^−1
VhCBP F411A; ITC, F411A, 20 mM Tris-HCl pH 8.0, 25 °C, mean ± SD
  Kd: 0.4 ± 0.07 µM
VhCBP F411A; ITC, F411A, pH 8.0, 25 °C
  ΔG°: -8.7 ± 0.1 kcal/mol
  ΔH°: -3.3 ± 0.1 kcal/mol
  −TΔS°: -5.4 ± 0.1 kcal/mol
VhCBP N409A; ITC, N409A, 20 mM Tris-HCl pH 8.0, 25 °C, mean ± SD
  Kd: 0.45 ± 0.1 µM
VhCBP N409A; ITC, N409A, pH 8.0, 25 °C
  ΔG°: -8.7 ± 0.1 kcal/mol
  ΔH°: -9.6 ± 0.6 kcal/mol
  −TΔS°: 1.0 ± 0.7 kcal/mol
VhCBP N409A; N409A versus WT
  ΔΔG°: +1.6 ± 0.2 kcal.mol^−1
VhCBP N204A; ITC, N204A, 20 mM Tris-HCl pH 8.0, 25 °C, mean ± SD
  Kd: 0.83 ± 0.17 µM
VhCBP N204A; ITC, N204A, pH 8.0, 25 °C
  ΔG°: -8.3 ± 0.1 kcal/mol
  ΔH°: -0.75 ± 0.05 kcal/mol
  −TΔS°: -7.6 ± 0.2 kcal/mol
VhCBP N204A; N204A versus WT
  ΔΔG°: +2.1 ± 0.3 kcal.mol^−1
VhCBP D365A; D365A versus WT
  ΔΔG°: +8.6 ± 0.3 kcal.mol^−1
VhCBP D365A; ITC, D365A, 20 mM Tris-HCl pH 8.0, 25 °C, mean ± SD
  Kd: 65000 µM
VhCBP D365A; ITC, D365A, pH 8.0, 25 °C
  ΔG°: -1.6 ± 0.0 kcal/mol
  ΔH°: -11.3 ± 0.4 kcal/mol
  −TΔS°: 9.7 ± 0.4 kcal/mol
VhCBP E10A; E10A versus WT
  ΔΔG°: +1.9 ± 0.2 kcal.mol^−1
VhCBP E10A; ITC, E10A, 20 mM Tris-HCl pH 8.0, 25 °C, mean ± SD
  Kd: 0.71 ± 0.07 µM
VhCBP E10A; ITC, E10A, pH 8.0, 25 °C
  ΔG°: -8.4 ± 0.1 kcal/mol
  ΔH°: -8.8 ± 0.1 kcal/mol
  −TΔS°: 0.4 ± 0.2 kcal/mol

## CC(=O)N[C@H]1[C@H](O[C@H]2[C@H](O)[C@@H](NC(C)=O)C(O)O[C@@H]2CO)O[C@H](CO)[C@@H](O[C@@H]2O[C@H](CO)[C@@H](O)[C@H](O)[C@H]2NC(C)=O)[C@@H]1O (stereo partly drawn) [(GlcNAc)3]
VhCBP WT
  ΔG°: -9.7 ± 0.3 kcal/mol
  ΔH°: -4.7 ± 0.1 kcal/mol
  −TΔS°: -5.0 ± 0.3 kcal/mol
  Kd: 0.09 ± 0.05 µM
  fold lower affinity than (GlcNAc)2: 3 fold

## CC(=O)N[C@H]1[C@H](O[C@H]2[C@H](O)[C@@H](NC(C)=O)C(O)O[C@@H]2CO)O[C@H](CO)[C@@H](O[C@@H]2O[C@H](CO)[C@@H](O[C@@H]3O[C@H](CO)[C@@H](O)[C@H](O)[C@H]3NC(C)=O)[C@H](O)[C@H]2NC(C)=O)[C@@H]1O (stereo partly drawn) [(GlcNAc)4]
VhCBP WT
  ΔG°: -8.8 ± 0.3 kcal/mol
  ΔH°: -4.8 ± 0.6 kcal/mol
  −TΔS°: -4.0 ± 1.0 kcal/mol
  Kd: 0.4 ± 0.24 µM
  fold lower affinity than (GlcNAc)2: 12 fold

— paper PMC8449061, “A structural model for (GlcNAc)2 translocation via a periplasmic chitooligosaccharide-binding protein from marine Vibrio bacteria” (The Journal of Biological Chemistry, 2021)
